Assay results from patent US8956824B2, “Methods for identifying allosteric modulators of ship polypeptides” (British Columbia Cancer Agency Branch, priority 2006, dated 2015).
“Also recorded” adds a separate entry of the source.

How the values were obtained:
J16 cells = test: Inositol phospholipid analysis in LPS-stimulated macrophages; assay type: cell-based, mouse
Description: Inositol phospholipid analysis. J16 cells, a macrophage cell line immortalized from C57B16 mice, were grown in 10% FCS in IMDM supplemented with 10 μM 2-mercaptoethanol, 150 μM monothioglycolate (MTG) and 1 mM glutamine. 5×10^6 cells were plated the night before in 10 cm tissue culture dishes. The next day, cells were washed three times with phosphate-free medium before being starved in phosphate free RPMI (MP Biomedicals, Irvine, Calif.) supplemented with 10% dialyzed FCS (Invitrogen, Burlington, Ont) and 1% RPMI for 2 hrs. Cells were then labeled with 1.0 mCi of ^32P-labeled orthophosphate (MP Biomedicals, Irvine, Calif.)/ml for 2 hrs at 37° C. Cells were pretreated for 30 mM with AQX-016A, LY294004 or vehicle prior to stimulation with LPS (50 ng/ml) for 15 min. Extraction of inositol phospholipids and HPLC analysis of deacylated lipids were performed as described previously (16). The amount of radioactivity contained in the elution peak for each lipid (two to five fractions) was summed to give the total counts for each lipid, and data were normalized to the first 60 fractions to adjust for fluctuations in total lipid labeling and recovery between samples. Data are expressed as the mean+/− the SEM of three independent replicates for each stimulation condition and the experiment was repeated twice.

[1] = test system: SHIP1+/+ and SHIP1−/− BMmφs; test: LPS-stimulated PKB phosphorylation in BMmφs (immunoblot); assay type: cell-based, mouse; details: 30 min pretreatment, 10 ng/mL LPS 15 min
Description: LPS stimulation of BMmφs. For the analysis of LPS-stimulated TNFα production, 2 ×10^5 cells were plated the night before in 24 well plates in BMmφp medium. The next day, the medium was changed and AQX-016A or carrier was added to cells at the indicated concentrations for 30 min prior to the addition of 10 ng/mL LPS. Supernatants were collected after 1 hr for TNFα determination by ELISA (BD Biosciences, Mississauga, ON, Canada). Data are expressed as the mean +/− SEM of triplicates and experiments were repeated 3 times. For analysis of intracellular signaling, 2×10^6 cells were plated the night before in 6 cm tissue culture plates. The next day, the cells were cultured in BMmφp medium without M-CSF for 1 hr at 37° C. and then pretreated with AQX-016A or carrier for 30 min prior to the addition of 10 ng/mL LPS for 15 min. Cells were washed with 4° C. PBS and resuspended in lysis buffer (50 mM Hepes, 2 mM EDTA, 1mM NaVO4 , 100 mM NaF, 50 mM NaPPi and 1%NP4O) supplemented with COMPLETE™ Protease Inhibitor Cocktail (Roche, Montreal, Canada). Lysates were rocked at 4° C. for 30 min and clarified by centrifuging 20 min at 12000×g. Lysates were then made 1× in Laemmli's buffer, boiled 2 min and loaded onto 7.5% SDS polyacrylamide cells. […]

SHIP1 C2 domain = target: T1, SHIP1 C2 domain (Mus musculus, UniProt Q9ES52); test: Scintillation proximity assay, C2 domain; assay type: binding; details: C2 domain 10 nM, 5 μCi
T1 construct: Recombinant SHIP1 C2 domain (amino acid residues 725 to 863); made in house; host or cells: E. coli, pET28C
T1 sequence (Q9ES52 725-863): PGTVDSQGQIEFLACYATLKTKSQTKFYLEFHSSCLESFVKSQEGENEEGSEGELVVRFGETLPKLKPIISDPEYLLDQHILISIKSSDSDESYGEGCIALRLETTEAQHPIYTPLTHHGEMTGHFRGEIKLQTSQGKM
Description: Scintillation Proximity Assays AQX-MN100 was radiolabeled with tritium by GE Healthcare (Piscataway, N.J.) to a specific activity of 42 Ci/mmole. Copper chelate (His-Tag) YSi YSi SPA Scintillation Beads (GE Healthcare ,Piscataway, NJ) were diluted in 0.25% BSA/TBS to 1.5 mg/mL and recombinant, His6-tagged protein added at the indicated concentrations: wild-type (1 pM), ΔC2 SHIP enzyme (1 pM) or C2 domain (10 nM). Protein was allowed to bind 1 h at 23° C., and 250 μg of beads were aliquoted per well of a 96-well plate. 5 μCi of [3H]-AQX-MN100 was added per well, the plate gently agitated for 30 min and the amount of bead associated radioactivity quantified by counting in a Wallac BETAPLATE™ plate scintillation counter. Results are representative of 3 independent experiments.

| Compound | PIP3 levels after LPS stimulation (J16 cells; 30 min pretreatment with 5 mg/mL AQX-016A or 25 μM LY294002, LPS 15 min) | PI-3,4-P2 levels after LPS stimulation (J16 cells; 30 min pretreatment with AQX-016A or 25 μM LY294002, LPS 15 min) | LPS-stimulated PKB phosphorylation, SHIP1+/+ vs SHIP1−/− BMmφs [1] | binding of [3H]-AQX-MN100 to recombinant C2 domain (SHIP1 C2 domain) |
| --- | --- | --- | --- | --- |
| Cc1cc(O)c(O)c2c1[C@]1(C)CC[C@H]3C(C)(C)CCC[C@]3(C)[C@H]1C2 [AQX-016A] | abolished this increase | corresponding increase | preferentially inhibited, in a dose dependent manner, LPS-stimulated PKB phosphorylation in SHIP1+/+ but not in SHIP1−/− | – |
| Cc1cc(O)cc2c1[C@]1(C)CC[C@H]3C(C)(C)CCC[C@]3(C)[C@H]1C2 [AQX-MN100] | – | – | – | could directly bind; also recorded: reproducibly observed to bound; also recorded: binds |
